Key:
[1] = system: FVB/n mice; assay: Nephrotoxic Serum Nephritis (NTS) model; type: in vivo, mouse
Description: In the Nephrotoxic Serum Nephritis (NTS) model, 8-week-old FVB/n mice were initially sensitized with an intraperitoneal injection of 0.5 mg of sheep IgG (IP, Jackson ImmunoResearch) with complete Freund's adjuvant (IP, Millipore Sigma). Five days later, mice were administered 100 μl of NTS (IP, ProbeTex), as previously described (Estrada et al. (2018) JCI Insight 3). […] Urine was collected and mice were euthanized at day 7 or day 14 post-NTS treatment.
Urine albumin was quantified by ELISA using a kit from Bethyl Laboratory Inc. Urine creatinine levels were measured in the same samples using the Creatinine Colorimetric Assay Kit (500701; Cayman Chemical) as per manufacturer's protocol.
Briefly formalin-fixed and paraffin embedded sections were deparaffinized, and endogenous peroxidase was inactivated with H2O2. All kidney sections from these mice were prepared in identical fashion. Immunofluorescence was performed using rabbit anti-KLF15, mouse anti-WT1 (Santa Cruz, SC-7385), rabbit anti-Synaptopodin (Sigma, SAB3500585), rabbit anti-p65 (Cell Signaling Tech, 8242S) antibodies. After washing, sections were incubated with the appropriate fluorophore-linked secondary antibody (Alexa Fluor 647 Donkey anti-mouse, Alexa Fluor 568 Donkey anti-rabbit antibodies, Life Technologies). After counter staining with Hoechst (Thermo Fisher Scientific), slides were mounted in Prolong Gold mounting media (Thermo Fisher Scientific) and photographed under a Nikon Eclipse Ni-E Fully Motorized Microscope System with a DS-Qi2 digital camera.
Quantification of KLF15 staining in the podocytes was determined by quantifying the intensity of KLF15 staining (optical density) in WT1+Hoechst staining using ImageJ 1.53c software (National Institute of Health, http://imagej.nih.gov/ij).
Mice were perfused with PBS, and the kidneys were fixed in 10% phosphate buffered formalin overnight and switched to 70% ethanol before processing for histology. Kidney tissue was embedded in paraffin by Stony Brook Medicine Research Histology Core Laboratory (RHCL)—Department of Pathology and 4-μm-thick sections were stained with periodic acid-Schiff (PAS), hematoxylin & eosin (H&E), and masson's trichrome (Sigma-Aldrich). Quantification of % FSGS was determined by renal pathology in a blinded fashion (Huntsman Cancer Institute-University of Utah Health).

[2] = system: differentiated human podocytes; assay: RNA sequencing and enrichment analysis of BT503-treated podocytes; type: cell-based; conditions: vs DMSO in the setting of LPS treatment
Source text: RNA sequencing data was processed as previously described (Z. Wang, A. Ma'ayan, (2016) F1000Res 5, 1574). Briefly, sequencing reads were first aligned to the human genome (version hg38) using Spliced Transcripts Alignment to a Reference (STAR 2.4.1c) (A. Dobin et al., (2013) Bioinformatics 29, 15-21). Aligned reads were then quantified to the transcriptome (UCSC hg38 annotation) at the gene level using featureCounts (v1.4.6) (Y. Liao, G. K. Smyth, W. Shi, (2014) Bioinformatics 30, 923-930). Read counts were normalized to count per million (CPM), and differentially expressed genes were identified using BioJupies (A. Lachmann et al., (2018) Nat Commun 9, 1366). Enrichment analyses of the differentially expressed genes were performed with Enrichr (33, 66) with WikiPathways (D. N. Slenter et al., (2018) Nucleic Acids Res 46, D661-d667) and KEGG (M. Kanehisa, S. Goto, (2000) Nucleic Acids Res 28, 27-30) databases. Normalized read counts were used to create matrix visualized heat maps on Morpheus by Broad Institute (https://software.broadinstitute.org/morpheus) with hierarchical clustering, sorted by one minus Pearson's correlation and clustered by rows. […]

[3] = system: NF-κB signaling (p50, p65, IκBα)
Source text: Differentiated human podocytes were lysed with a fractionation buffer containing 1× protease and phosphatase inhibitor cocktail (Thermo Fisher Scientific) and separate cytoplasmic and nuclear fractions using a modified procedure described before (72).

[4] = system: KLF15 promoter with mutation in the GRE (pEZX-FR03hKLF5p-mutant podocytes); assay: GR-mutant KLF15 reporter assay; type: cell-based, human; conditions: as compared to DMSO
[5] = system: KLF15 promoter (pEZX-FR03hKLF15p human podocytes); assay: KLF15 reporter high-throughput screening assay in human podocytes (firefly/renilla luciferase); type: cell-based
Description: Briefly, these podocytes proliferate under permissive conditions (gamma interferon at 33° C.), but differentiate under nonpermissive conditions (37° C.).
The amplified fragment contains MluI and PmeI RE sites and was subcloned into the MluI and PmeI cloning site of the pEZX-FR03 Firefly luciferase (FLuc) and Renilla luciferase (Rluc) reporter cloning vector (GeneCopoeia) to generate pEZX-FR03hKLF15p. Following verification of the sequence by restriction and μsequencing, the pEZX-FR03hKLF15p construct (which contains a puromycin resistance cassette) was transfected into human podocytes followed by selection in puromycin-containing media for 2 weeks. Surviving podocytes clones were pooled together for further analysis.
The library of compounds from the National Cancer Institute (Approved Oncology Drugs Set VI; Natural Products Set III; Diversity Set V; and Mechanistic Diversity Set II) were added to a final concentration of 1 μM in 0.5% DMSO in the low FBS cell culture media (0.2% FBS) using liquid handling system PipetMax (Gilson). After 24 hours incubation at 37° C., the Luc-Pair™ Duo-Luciferase HT Assay Kit (GeneCopoeia LF015) were used and firefly and renilla luciferase activity was determined using the SpectraMax M3 (Molecular Devices). Positive controls were all-trans retinoic acid (atRA) (1 μM) and dexamethasone (DEX) (1 μM). Negative controls were DMSO and cell-free media.
To identify small molecule inducers of KLF15 expression in human podocytes, human podocytes were generated with a dual reporter, firefly luciferase directed at the KLF15 promoter region and renilla luciferase (pEZX-FR03hKLF15p). […] The positive controls were inducers of KLF15 expression, dexamethasone (DEX) and all-trans retinoic acid (atRA), and […] and cell-free wells served as negative controls.

[6] = system: mice; conditions: as compared to DMSO treatment
Source text: Serum was subsequently collected and mice were euthanized for collection of kidney, liver, and heart tissue.

In the case of `CSc1ccc(NC(=O)Nc2ccc(C)nc2)cc1` [BT503], the albuminuria ([1]; day 7 and 14 post-NTS treatment, vs DMSO) is reported as “significantly less albuminuria”, the “p65 expression in the glomeruli” value ([1]; post-NTS treatment) is reported as “attenuated” and the “glomerular injury (% of glomeruli with FSGS, extracapillary proliferation) and proteinaceous casts” value ([1]; vs DMSO) is reported as “significantly reduced”. The glomerular synaptopodin expression ([1]; vs DMSO) was “restored”, the “interstitial fibrosis (masson's trichrome and α-SMA staining)” value ([1]; vs DMSO) was “less interstitial fibrosis” and the “podocyte number (WT1+ podocytes per glomerular cross-sectional area)” value ([1]; vs DMSO) was “restored the podocyte number”. For the same compound, the “DEGs involved in NF-κB signaling (GSEA, heatmap)” value [2] was “downregulation”, the “nuclear localization of p50 and p65” value ([3]; LPS-treated podocytes) was “mitigated this translocation” and the IκBα expression ([3]; vs DMSO in the setting of LPS treatment) was “significantly increased”. The KLF15-mutant reporter activity [4] was “induced KLF15 activity”, the “KLF15 activity as compared to DEX-treated podocytes” value [5] was “higher KLF15 activity” and the “KLF15 activity under nonpermissive versus permissive conditions” value ([5]; 37 C vs 33 C) was “only induces KLF15 activity under nonpermissive (37 C) conditions”. For the same compound, the “aspartate aminotransferase (AST), alanine transaminase (ALT) levels” value [6] was “no significant difference” and the “histological changes in the kidney, heart, and liver tissue” value [6] was “no significant difference”.
